Data published in publication PMC8709388, “In Search of Small Molecules That Selectively Inhibit MBOAT4” (Molecules, 2021).

System: acyl ghrelin secretion from INS-1 cells (INS/GOAT/GHRL cell line)
Assay: INS-1 cellular assay: secreted acyl-ghrelin from INS/GOAT/GHRL cell line measured with ELISA
Type: cell-based, mouse
Conditions: for IC50: INS1, acyl-ghrelin secretion, read-out: in-house INS-1 IC50; for activity in cell culture (in words): acyl ghrelin secretion
Source text: Generation of Recombinant Retrovirus for mGOAT Expression. The mouse GOAT cDNA with C-terminal HA tag was amplified from pcDNA3.1-mouseGOAT-HA vector (gift from Brown and Goldstein lab) using the following primers: mGOAT_attb1 (forward primer) 5′-[…]—3′(attb1 recombination site is in italics, 5′ of mGOAT coding sequence is in bold, and Kozak coding sequence is underlined) and mGOAT_attb2 (reverse primer) 5′-[…] -3′ (attb2 recombination site is in italics, 3′ of mGAOT-HA coding sequence is in bold, and stop codon is underlined). The PCR product was cloned into donor vector pDONR221 (ThermoFisher) with BP clonase according to manufacturer’s instructions. Positive clones were verified by DNA sequencing with M13F and M13R primers. The resulting entry plasmid pDONR221-mGOAT-HA was used to transfer mGOAT-HA cDNA to destination vector pBabe-puro (Addgene cat# 51070 [35]) using LR clonase according to manufacturer’s instructions. Positive clones were verified by DNA sequencing with pBABE-5 and pBABE-3 primers. The resulting plasmid, pBabe-puro-mGOAT-HA, was used to generate retrovirus. The retrovirus was packed in 293T PhoE (Phoenix-ECO AT0CC® CRL-3214™) cells and used to infect INS-1 cells. The stable INS/GOAT cells were selecting on 1 μg/mL puromycin and GOAT expression was confirmed with immunoblot of membrane fraction isolated from antibiotic resistant culture using anti-HA antibody.
Generation of Lentivirus for Expression of Ghrelin. The cDNA for mouse preproghrelin was subcloned from pcDNA3.1-preproghrelin (gift from Brown and Goldstein lab) into pULTRA vector (Addgene cat# 24129 [36]) with XbaI and BamHI restriction enzymes. Using of these restriction sites for cloning will result in the creation of bi-cistronic expression of ghrelin along with EGFP to facilitate identification of positive cells by fluorescence. The above restriction sites were engineered via PCR reaction using the following primers: ghrl_pultra_forw 5′-[…]-3′ (5′ of preproghrelin coding sequence is in bold; XbaI site is in italics) and ghrl_pultra_rev 5′-[…] -3′ (3′ of preproghrelin coding sequence is in bold, stop codon is underlined, and BamHI site is italics). The recombinant lentivirus encoding preproghrelin cDNA was packed in Lenti-X 293T cells (Takara cat# 632180) by co-transfection of pUltra-EGFP-mouse-preproghrelin, with packaging encoding plasmid pCMV ΔR8.2 (Addgene cat# 12263) and envelope encoding plasmid pCMV-VSV g (Addgene cat# 8454). The INS/GOAT cells were infected with recombinant lentivirus to generate INS/GOAT/GHRL cell line. After few passages, the population of cells with puromycin resistance and ~90% fluorescence was saved for cell-based assay.
Cellular assay. INS/GOAT/GHRL cell line was routinely cultured in RPMI medium supplemented with 10% FBS, 1% Pen/Strep, 10 mM HEPES pH 7.2 and 50 μM 2-mercaptoethanol. Day 0: One 10 cm dish at full confluency was used to seed one 96-well plate. Day 1: Growth media was removed and cells were washed with PBS prior to adding fresh growth media as above but without 2-mercaptoethanol. The serial dilutions of tested compound at 50× concentration were prepared in vehicle containing growth media without 2-mercaptoethnol supplemented with 6% DMSO and were added to cells in duplicates. Day 2: 10 μL of growth media were removed from each well and amount of secreted acyl-ghrelin was measured with ELISA (Cayman cat# 10006307).

Cc1nc(Cl)nc(N)c1CCC1CCN(C(=O)[C@H](C)NC(=O)c2ccnn2C)CC1 [compound 5]
IC50: 670 nM

CNC(=O)c1cccc(Cc2c(C)nc3nonc3c2N)n1 [compound 6, reference compound]
IC50: 540 nM

CCCCOCC(=O)N1CCC(CCc2c(C)nc3nonc3c2N)CC1 [compound 10, 1-(4-(2-(7-amino-5-methyl-[1,2,5]oxadiazolo[3,4-b]pyridin-6-yl)ethyl)piperidin-1-yl)-2-butoxyethan-1-one]
IC50: > 6600 nM | activity in cell culture (in words): much less active in cells

Cc1nc2nonc2c(N)c1CCC1CCN(C(=O)[C@H](C)NC(=O)c2ccnn2C)CC1 [compound 11, (S)-N-(1-(4-(2-(7-amino-5-methyl-[1,2,5]oxadiazolo[3,4-b]pyridin-6-yl)ethyl)pip-eridin-1-yl)-1-oxopropan-2-yl)-1-methyl-1H-pyrazole-5-carboxamide]
potency of blocking ghrelin secretion from INS-1 cells relative to 5: 4 fold | IC50: 160 nM | activity in cell culture (in words): most potent compound we have tested in our cellular assay
